Where “and” joins values, the source holds several entries; their conditions need not be identical. Equal entries are not always repeated. Entries after “also recorded” stand apart in the source; their conditions may differ. Where two headings read alike, the source gives them in different places.
What was measured:
M. tuberculosis H37Rv [1] = details: cited from earlier work
[2] = mouse model; no reference given; cited from earlier work
mtFabH [3] = target: T1, mtFabH (Mycobacterium tuberculosis, UniProt P9WNG3); assay: mtFabH inhibition assay; assay type: biochemical
M. tuberculosis H37Rv [4] = assay: M. tuberculosis H37Rv inhibition assays (MIC); assay type: cell-based, Mycobacterium tuberculosis; details: for MIC: M. tuberculosis H37Rv
FAS-II = FAS-II assay; assay type: biochemical
Experimental: (§1) The molecules under investigation were designed to inhibit mtFabH in the mycobacterial FAS-II system, with selectivity over the related mammalian FAS-I system. To examine selectivity, the compounds were assessed using the procedures of Brown et al. and Slayden et al..
(§2) FAS-I and FAS-II experiments were conducted as per Slayden et al. (1996) using the 40–80% ammonium sulphate fraction. The standard reaction mixture for the incorporation of radioactivity from [2-^14C]malonyl-CoA into C16 to C24 fatty acids catalysed by FAS-I was composed as follows: 100 mM Tris.HCl pH 7.9, 5 mM EDTA, 5 mM dithiothreitol, 300 µM acetyl-CoA, 100 µM NADPH, 100 µM NADH, 1 µM flavin mononucleotide, 500 µM α-cyclodextrin, 300 µM CoA-SH, 100,000 cpm of [2-^14C] malonyl-CoA (specific activity 53 Ci/mol), test compound (0.5–200 µg/ml) and 2 mg of cytosolic enzyme preparation in a total volume of 500 µl. Similarly, the standard reaction mixture for incorporation of radioactivity from [2-^14C]malonyl-CoA into C24 to C30 fatty acids catalysed by FAS-II contained the following: 100 mM potassium phosphate buffer (pH 7.0), 5 mM EDTA, 5 mM dithiothreitol, 10 µM palmitoyl-CoA, 140 µM NADPH, 140 µM NADH, 100 µg of AcpM, 40 µM malonyl-CoA, 200,000 cpm of [2-^14C]malonyl-CoA (specific activity 53 Ci/mol), test compound (0.5–200 µg/ml) and 200 mg of cytosolic enzyme preparation in a total volume of 250 µl. In both the FAS-I and FAS-II assays, reactions were performed in triplicate at 37°C for 30 min and terminated by the addition of 250 µl of 20% potassium hydroxide in 50% methanol at 100°C for 45 min. Following acidification with 150 µl of 6 M HCl, the resultant ^14C-labelled fatty acids were extracted three times with petroleum ether. The organic extracts were pooled, washed once with an equal volume of water, and dried in a scintillation vial prior to counting.

mtFabH [5] = target: T1, mtFabH; details: cited from earlier work
FAS-I = FAS-I assay; assay type: biochemical
Experimental: as §1
as §2, with “In both the FAS-I and FAS-II assays, reactions were performed in triplicate at 37°C for 30 min and terminated by the addition of 250 µl of 20% potassium hydroxide in 50% methanol at 100°C for 45 min. Following acidification with 150 µl of 6 M HCl, the resultant ^14C-labelled fatty acids were extracted three times with petroleum ether. The organic extracts were pooled, washed once with an equal volume of water, and dried in a scintillation vial prior to counting.” left out

[6] = no reference given; cited from earlier work
[7] = N/A = no inhibition observed at 200 µg/ml, read-out: mtFabH IC50 (class N/A)
[8] = Mycobacterium tuberculosis, read-out: TB MIC
[9] = read-out: mtFabH IC50 (converted)
[10] = Mycobacterium tuberculosis, N/A = no inhibition observed at 200 µg/ml, read-out: TB MIC (class N/A)

T1 sequence (P9WNG3 2-335): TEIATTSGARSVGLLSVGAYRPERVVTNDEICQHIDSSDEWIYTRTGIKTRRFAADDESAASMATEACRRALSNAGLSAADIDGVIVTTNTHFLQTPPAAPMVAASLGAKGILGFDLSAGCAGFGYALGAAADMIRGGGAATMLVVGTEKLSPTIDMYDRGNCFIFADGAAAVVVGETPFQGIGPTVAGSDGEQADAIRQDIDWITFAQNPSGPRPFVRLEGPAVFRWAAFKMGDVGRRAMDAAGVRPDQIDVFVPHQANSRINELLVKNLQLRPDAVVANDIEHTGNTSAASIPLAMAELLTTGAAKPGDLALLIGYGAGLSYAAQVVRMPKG

| Structure (SMILES) | inhibition of mtFabH (in words) (mtFabH [3]) | IC50 (mtFabH [3]; [7]) [µM] | inhibition of M. tuberculosis H37Rv (in words) (M. tuberculosis H37Rv [4]) | MIC (M. tuberculosis H37Rv [4]; [10]) [µg/mL] | melting point [°C] | other results |
| --- | --- | --- | --- | --- | --- | --- |
| C=C/C(C)=C/[C@@]1(C)SC(=O)C(C)=C1O [1 (TLM), thiolactomycin] | – | – | – | – | – | MIC (M. tuberculosis H37Rv [1]; listed as TLM): 13 µg/ml and 62.5 µM; oral availability [2]: orally available; toxicity [2]: non-toxic |
| COC(=O)c1nc(N)sc1Cc1ccccc1 [Compound 2, methyl 2-amino-5-benzylthiazole-4-carboxylate] | no activity | > 805 | – | – | – | MIC (M. tuberculosis H37Rv [4]; read-out: TB MIC): 0.24 µM; MIC (M. tuberculosis H37Rv [4]; [8]): 0.06 µg/mL and 0.24 µM |
| COC(=O)c1nc(NC(=O)CBr)sc1-c1cccc(Cl)c1 [Compound 3, methyl 2-(2-bromoacetamido)-5-(3-chlorophenyl)thiazole-4-carboxylate] | active against mtFabH | – | not active | > 200 | – | IC50 (mtFabH [3]; [9]): 2.44 µM and 2.43 µM; inhibition of FAS-II (in words) (FAS-II): selective against FAS-II |
| CC1=C(O)C(C)(Cc2ccc(-c3ccc(C(=O)O)cc3)cc2)SC1=O (centres unmarked) [Compound 4] | – | – | – | – | – | IC50 (mtFabH [5]): 3.1 µM and 3 µM |
| COC(=O)c1nc(N)sc1C [Compound 6, Methyl 2-amino-5-methylthiazole-4-carboxylate] | – | > 1160 | – | – | 165 to 168 | MIC (M. tuberculosis H37Rv [4]; [8]): 16 µg/mL and 93 µM |
| COC(=O)c1nc(N)sc1-c1ccccc1 [Compound 7, Methyl 2-amino-5-phenylthiazole-4-carboxylate] | – | > 854 | inactivity | > 200 | 218 to 221 | – |
| COC(=O)c1nc(N)sc1-c1cccc(Cl)c1 [Compound 8, Methyl 2-amino-5-(3-chlorophenyl)thiazole-4-carboxylate] | – | > 744 | inactive | > 200 | 229 to 232 | – |
| Cc1sc(N)nc1C(=O)O [Compound 9, 2-amino-5-methylthiazole-4-carboxylic acid] | – | > 1260 | – | – | – | MIC (M. tuberculosis H37Rv [4]; [8]): 0.06 µg/mL and 0.35 µM |
| Nc1nc(C(=O)O)c(-c2ccccc2)s1 [Compound 10, 2-amino-5-phenylthiazole-4-carboxylic acid] | – | > 908 | inactive | > 200 | 242 to 243 | – |
| Nc1nc(C(=O)O)c(-c2cccc(Cl)c2)s1 [Compound 11, 2-amino-5-(3-chlorophenyl)thiazole-4-carboxylic acid] | – | > 785 | active | – | 242 to 244 | MIC (M. tuberculosis H37Rv [4]; [8]): 32 µg/mL and 125 µM |
| Nc1nc(C(=O)O)c(Cc2ccccc2)s1 [Compound 12, 2-amino-5-benzylthiazole-4-carboxylic acid] | – | > 854 | inactive | > 200 | 300 to 302 | – |
| COC(=O)c1nc(NC(=O)CBr)sc1C [Compound 13, Methyl 2-(2-bromoacetamido)-5-methylthiazole-4-carboxylate] | fails to inhibit | > 682 | – | > 200 | 220 to 222 | – |
| COC(=O)c1nc(NC(=O)CBr)sc1-c1ccccc1 [Compound 14, Methyl 2-(2-bromoacetamido)-5-phenylthiazole-4-carboxylate] | active against mtFabH | – | – | > 200 | 218 to 220 | IC50 (mtFabH [3]; [9]): 3.1 µM and 3.22 µM; inhibition of FAS-II (in words) (FAS-II): selective against FAS-II |
| COC(=O)c1nc(NC(=O)CBr)sc1Cc1ccccc1 [Compound 15, Methyl 5-benzyl-2-(2-bromoacetamido)thiazole-4-carboxylate] | – | – | – | > 200 | 218 to 220 | IC50 (mtFabH [3]; [9]): 160 µM; inhibition of FAS-I (in words) (FAS-I): failed to inhibit the FAS enzymes; inhibition of FAS-II (in words) (FAS-II): failed to inhibit the FAS enzymes |
| Cc1sc(NC(=O)CBr)nc1C(=O)O [Compound 16, 2-(2-Bromoacetamido)-5-methylthiazole-4-carboxylic acid] | failed to inhibit | > 717 | – | > 200 | 218 to 220 | – |
| O=C(CBr)Nc1nc(C(=O)O)c(-c2ccccc2)s1 [Compound 17, 2-(2-Bromoacetamido)-5-phenylthiazole-4-carboxylic acid] | failed to inhibit | > 586 | – | > 200 | 208 to 210 | – |
| O=C(CBr)Nc1nc(C(=O)O)c(-c2cccc(Cl)c2)s1 [Compound 18, 2-(2-Bromoacetamido)-5-(3-chlorophenyl)thiazole-4-carboxylic acid] | failed to inhibit; also recorded: inactive | > 532 | – | > 200 | 228 to 230 | – |
| O=C(CBr)Nc1nc(C(=O)O)c(Cc2ccccc2)s1 [Compound 19, 5-Benzyl-2-(2-bromoacetamido)thiazole-4-carboxylic acid] | – | – | – | > 200 | 220 to 222 | IC50 (mtFabH [3]; [9]): 633 µM and 718 µM; inhibition of FAS-I (in words) (FAS-I): inhibited both FAS-I and FAS-II; inhibition of FAS-II (in words) (FAS-II): inhibited both FAS-I and FAS-II |
| NNC(=O)c1ccncc1 [INH, isoniazid] | – | – | – | – | – | MIC (M. tuberculosis H37Rv [1]): 0.25 µg/ml and 1.8 µM; logP [6]: −1.1 |
